Source: patent publication US9790233B2, “Compositions and methods of modulating 15-PGDH activity” (CASE WESTERN RESERVE UNIVERSITY, priority 2012, dated 2017)
Like-named read-outs stand apart in the source and are kept apart here.

Experiments:
Format in all cases: cell-based
[1] = tested on: 15-PGDH luciferase fusion construct in LS174T reporter cell line; test: 15-PGDH-luciferase fusion gene reporter induction, LS174T cells; details: Homo sapiens
[2] = tested on: 15-PGDH luciferase fusion construct in Vaco503 reporter cell line; test: 15-PGDH-luciferase fusion gene reporter induction, V503 cells; details: read-out: V503-3H9-7 reporter activity, % ([…]), V503 reporter cells, […] compound, % induction of luciferase activity over basal level
[3] = tested on: 15-PGDH luciferase fusion construct in V9m reporter cell line; test: 15-PGDH-luciferase fusion gene reporter induction, V9m cells; details: % induction of luciferase activity over basal level
[4] = read-out: Ls174T-SC1 reporter activity, % ([…]), LS174T reporter cells, […] compound, % induction of luciferase activity over basal level, read-out: Ls174T-SC1 reporter activity, % (2.5 μM)
[5] = read-out: Ls174T-SC1 reporter activity, % ([…]), LS174T reporter cells, […] compound, % induction of luciferase activity over basal level, read-out: Ls174T-SC1 reporter activity, % (7.5 μM)
[6] = read-out: V503-3H9-7 reporter activity, % (2.5 μM)
[7] = read-out: V503-3H9-7 reporter activity, % (7.5 μM)
[8] = read-out: V9M-SC3 Reporter activity ([…]) (%), V9m reporter cells, […] compound, read-out: V9M-SC3 Reporter activity (2.5 μM) (%)
[9] = read-out: V9M-SC3 Reporter activity ([…]), %, V9m reporter cells, […] compound, read-out: V9M-SC3 Reporter activity (7.5 μM), %

| Compound | activation at […] [1, 4] | activation at […] [1, 5] | activation at […] [2, 6] | activation at […] [2, 7] | activation at […] [3, 8] | activation at […] [3, 9] |
| --- | --- | --- | --- | --- | --- | --- |
| COc1ccc(OC)c(N(CC(=O)Nc2ccnc(Cl)c2)S(=O)(=O)c2ccccc2)c1 [SW202946] | 105% | -23.6% | 137% | 34.3% | 64.6% | -41.5% |
| COc1ccc(OC)c(N(CC(=O)Nc2cccnc2)S(=O)(=O)c2ccccc2F)c1 [SW202947] | 52% | 21.2% | 143% | 97.8% | 21.9% | 2.57% |
| COc1ccc(OC)c(NCC(=O)Nc2cccnc2)c1 [SW202948] | -6.73% | 8.36% | 16.4% | 7.54% | -22% | -23.1% |
| COc1ccc(OC)c(N(CC(=O)Nc2cccnc2)S(=O)(=O)c2ccccc2Cl)c1 [SW202949] | -1.58% | -5.87% | -12.5% | 5.32% | 5.76% | -5.69% |
| COc1ccc(OC)c(N(CC(=O)Nc2cccnc2)S(=O)(=O)c2ccc(C(C)=O)cc2)c1 [SW202950] | -2.7% | 10.7% | -6.56% | 12.9% | 12.6% | 23.9% |
| COc1ccc(OC)c(N(CC(=O)Nc2cccnc2)C(C)=O)c1 [SW202952] | -10.3% | 10.6% | 26.2% | 7.16% | -20.7% | -19.5% |
| COc1ccc(OC)c(N(CC(=O)Nc2cccnc2)S(=O)(=O)c2c(C)cc(C)cc2C)c1 [SW202953] | 20.7% | 30.7% | 32% | 50.9% | 13% | 34.8% |
| COc1ccc(OC)c(N(CC(=O)Nc2cccnc2)S(=O)(=O)c2ccccc2OC(F)(F)F)c1 [SW202954] | -4.59% | -6.99% | -8.94% | 2.39% | 2.7% | 4.8% |
| COc1ccc(OC)c(N(CC(=O)Nc2ccccc2OC)S(=O)(=O)c2ccccc2)c1 [SW202965] | -23.5% | 3.52% | 23.8% | 98.1% | -30.9% | -25.8% |
| COc1ccc(OC)c(N(CC(=O)Nc2ccnc(C)c2)S(=O)(=O)c2ccccc2)c1 [SW202966] | 1.82% | 78.2% | 115% | 249% | -0.84% | 67.7% |
| COc1ccc(OC)c(N(CC(=O)Nc2cnccc2C)S(=O)(=O)c2ccccc2)c1 [SW202967] | -11.7% | 9.37% | 34% | 69.6% | -16% | 0% |
| COc1ccc(OC)c(N(CC(=O)Nc2cccnc2C)S(=O)(=O)c2ccccc2)c1 [SW202968] | -17.5% | 6.08% | 35.2% | 53.9% | -21.1% | -7.36% |
| COc1ccc(OC)c(N(CC(=O)Nc2cccc(C)c2)S(=O)(=O)c2ccccc2)c1 [SW202969] | -15.9% | 17.9% | 62.4% | 126% | -21% | -14.3% |
| COc1ccc(OC)c(N(CC(=O)Nc2ccc(Cl)nc2)S(=O)(=O)c2ccccc2)c1 [SW202970] | 47.9% | 55.9% | 179% | 122% | 32.7% | 17.8% |
| COc1ccc(OC)c(N(CC(=O)OC(C)C)S(=O)(=O)c2ccccc2)c1 [SW202971] | -7.91% | 34.5% | 85.5% | 169% | -14.5% | 9.67% |
